Measured values from patent publication US4626505A, “Selectable markers for yeast transformation” (E. I. Du Pont de Nemours and Company, priority 1984, dated 1986).

Tested on: industrial S. cerevisiae strains ATCC 7754 and ATCC 4921
Assay: Growth/resistance of industrial yeast strains, untransformed and transformed with pCP2-4-10
Format: cell-based, Saccharomyces cerevisiae
Conditions: for resistance of industrial transformants to structurally related sulfonylurea growth inhibitors: ATCC 7754 and ATCC 4921 transformed with pCP2-4-10
Procedure: […]. […] The optimum period of incubation with glusulase for producing spheroplasts was determined to be approximately 3 hours.
The resulting industrial transformants were resistant to other, structurally related sulfonylurea growth inhibitors in addition to sulfometuron methyl. These inhibitors included N-[(4-methoxy-6-methyl-pyrimidin-2-yl)aminocarbonyl]-2-nitrobenzenesulfonamide; N-[(4,6-dimethoxy-pyrimidin-2-yl)-aminocarbonyl]-2-methylthiobenzenesulfonamide; and 2-[[(4-chloro-6-methoxypyrimidine-2-yl)amino carbonyl]aminosulfonyl]benzoic acid, ethyl ester.

| Compound | resistance of industrial transformants to structurally related sulfonylurea growth inhibitors | growth of untransformed wild-type strains (30 μg/mL, ATCC 7754 and ATCC 4921, untransformed) |
| --- | --- | --- |
| COc1cc(OC)nc(NC(=O)NS(=O)(=O)c2ccccc2SC)n1 [N-[(4,6-dimethoxy-pyrimidin-2-yl)-aminocarbonyl]-2-methylthiobenzenesulfonamide] | resistant |  |
| CCOC(=O)c1ccccc1S(=O)(=O)NC(=O)Nc1nc(Cl)cc(OC)n1 [2-[[(4-chloro-6-methoxypyrimidine-2-yl)aminocarbonyl]aminosulfonyl]benzoic acid, ethyl ester] | resistant |  |
| COC(=O)c1ccccc1S(=O)(=O)NC(=O)Nc1nc(C)cc(C)n1 [sulfometuron methyl] |  | completely inhibited |
| COc1cc(C)nc(NC(=O)NS(=O)(=O)c2ccccc2[N+](=O)[O-])n1 [N-[(4-methoxy-6-methyl-pyrimidin-2-yl)aminocarbonyl]-2-nitrobenzenesulfonamide] | resistant |  |
